Assay results as given in ChEMBL document CHEMBL1146305, “Synthesis of pyochelin-norfloxacin conjugates” (Bioorg Med Chem Lett, 2007).
Active and inactive are the calls of the source. The rule behind the calls is not given here.

Tested on: Pseudomonas aeruginosa
Test: Antibacterial activity against Pseudomonas aeruginosa PAO1
Type: functional, organism-based

SMILES	Activity
CCn1cc(C(=O)O)c(=O)c2cc(F)c(N3CCN(C(=O)OCOC(=O)CCC(=O)NCC#Cc4ccc(O)c(C5=NC(C6SCC(C(=O)O)N6C)CS5)c4)CC3)cc21 (configuration not stated)	Active
CCn1cc(C(=O)O)c(=O)c2cc(F)c(N3CCN(C(=O)OCOC(=O)CCC(=O)NCCCc4ccc(O)c(C5=NC(C6SCC(C(=O)O)N6C)CS5)c4)CC3)cc21 (configuration not stated)	Active
